Test [1] has as its target T1, prostacyclin synthetase (Sus scrofa, UniProt A0A5G2QT35).
T1 construct: Pig aorta microsomes; from tissue; host or cells: pig aorta (microsomes)
T1 sequence (A0A5G2QT35 1-497): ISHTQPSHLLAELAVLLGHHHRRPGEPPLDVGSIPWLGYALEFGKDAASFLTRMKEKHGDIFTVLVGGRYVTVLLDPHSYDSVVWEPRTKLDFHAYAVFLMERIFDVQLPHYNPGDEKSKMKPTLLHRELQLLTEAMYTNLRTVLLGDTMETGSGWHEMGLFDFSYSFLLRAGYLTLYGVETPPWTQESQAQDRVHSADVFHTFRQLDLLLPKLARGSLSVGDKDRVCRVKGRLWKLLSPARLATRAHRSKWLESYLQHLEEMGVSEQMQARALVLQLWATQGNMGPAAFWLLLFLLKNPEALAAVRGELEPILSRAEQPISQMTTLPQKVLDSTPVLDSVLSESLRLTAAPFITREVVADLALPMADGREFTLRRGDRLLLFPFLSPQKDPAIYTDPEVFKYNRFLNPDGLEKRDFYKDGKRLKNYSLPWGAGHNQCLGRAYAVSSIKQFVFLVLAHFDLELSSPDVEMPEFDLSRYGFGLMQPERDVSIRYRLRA
The conditions noted are these: pre-incubation of the enzyme; Prostaglandins, 1976, 12, 715; cited from earlier work.

Test [2] concerns arachidonic acid induced death in rabbits. The conditions noted are these: rabbit, intravenous injection of arachidonic acid; cited from earlier work.
The next test deals with cyclo-oxygenase enzyme. The conditions noted are these: cited from earlier work.
In test [3] the test system is prostacyclin and thromboxane A2 levels. The conditions noted are these: cited from earlier work.
Test [4] concerns human blood platelet aggregation. The conditions noted are these: human blood platelets; cited from earlier work.
Another test addresses T2, thromboxane synthetase (Homo sapiens, UniProt P24557).
T2 construct: Indomethacin pre-treated human platelet microsomes; from tissue; host or cells: human blood platelets (microsomes)
T2 sequence (P24557 1-533): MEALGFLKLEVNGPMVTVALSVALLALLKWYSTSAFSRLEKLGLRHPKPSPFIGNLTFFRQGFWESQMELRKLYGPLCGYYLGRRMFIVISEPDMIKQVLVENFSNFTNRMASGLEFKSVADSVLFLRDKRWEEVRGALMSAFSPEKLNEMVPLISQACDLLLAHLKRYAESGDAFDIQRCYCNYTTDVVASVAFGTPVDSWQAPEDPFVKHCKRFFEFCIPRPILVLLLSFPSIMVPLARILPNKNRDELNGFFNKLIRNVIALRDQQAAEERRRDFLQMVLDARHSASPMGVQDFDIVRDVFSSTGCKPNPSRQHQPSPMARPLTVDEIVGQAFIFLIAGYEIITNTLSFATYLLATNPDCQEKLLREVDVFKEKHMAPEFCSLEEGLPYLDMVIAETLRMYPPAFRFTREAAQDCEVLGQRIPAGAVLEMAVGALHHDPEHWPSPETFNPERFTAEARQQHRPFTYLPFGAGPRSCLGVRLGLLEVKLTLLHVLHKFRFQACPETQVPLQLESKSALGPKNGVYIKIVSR
In words: Thromboxane A2 (TxA2) synthetase inhibition (indomethacin pre-treated human platelet microsomes, rabbit aorta superfusion bioassay). The conditions noted are these: 5 min pre-incubation, isometric tension of rabbit aorta, read-out: Molar concentration causing 50% inhibition of (1) thromboxane synthetase. In kind it is biochemical. How it is done: 3. Thromboxane A2 (TxA2) Synthetase
Indomethacin pre-treated human platelet microsomes (Science 1976, 193, 163) are incubated (2 min.: 0° C.) with PGH2 (produced as in 1) and aliquots of the reaction mixture superfused over two rabbit aorta spirals which are separated by a delay coil (2 min.). The latter is required to allow the selective decay of the more unstable thromboxane A2 (Proc. Nat. Acad. Sci., 1975, 72, 2994) thereby enabling the separate measurement of increased isometric tension due to the TxA2 formed and the PGH2 remaining. The test compound is pre-incubated with the enzyme for 5 minutes, and its ability to inhibit the thromboxane synthetase enzyme is measured as its reduction of the TxA2 component of the isometric tension.
(§1) The results of these tests are shown in the following Table, which gives the molar concentration of each compound which caused a 50% change in the effect of the relevant enzyme on isometric tension, i.e. caused a 50% inhibition of the action of that enzyme.

A further test addresses T3, cyclo-oxygenase (Ovis aries, UniProt P05979).
T3 construct: Ram seminal vesicle microsomes; from tissue; host or cells: ram seminal vesicle (microsomes)
T3 sequence (P05979 25-600): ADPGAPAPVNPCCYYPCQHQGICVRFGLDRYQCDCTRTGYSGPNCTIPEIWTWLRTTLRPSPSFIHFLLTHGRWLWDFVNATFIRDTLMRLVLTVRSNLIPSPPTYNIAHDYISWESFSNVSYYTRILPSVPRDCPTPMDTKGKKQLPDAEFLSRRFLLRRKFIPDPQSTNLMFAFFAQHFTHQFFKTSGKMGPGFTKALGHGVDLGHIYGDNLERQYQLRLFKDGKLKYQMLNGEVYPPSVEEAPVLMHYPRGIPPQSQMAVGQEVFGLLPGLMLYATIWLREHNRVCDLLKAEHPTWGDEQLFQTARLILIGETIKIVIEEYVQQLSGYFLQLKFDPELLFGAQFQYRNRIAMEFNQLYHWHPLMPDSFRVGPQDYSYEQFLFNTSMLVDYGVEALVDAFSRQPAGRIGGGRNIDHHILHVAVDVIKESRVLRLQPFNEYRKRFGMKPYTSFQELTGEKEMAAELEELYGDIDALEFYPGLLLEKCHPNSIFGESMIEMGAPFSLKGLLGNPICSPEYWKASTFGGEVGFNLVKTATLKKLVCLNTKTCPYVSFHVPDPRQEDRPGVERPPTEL
As to the kind of experiment: Cyclo-oxygenase inhibition (ram seminal vesicle microsomes, rabbit aorta strip bioassay). The test is classed as biochemical. The conditions noted are these: 5 min pre-incubation, isometric tension of rabbit aorta, read-out: Molar concentration causing 50% inhibition of (2) cyclo-oxygenase. How it is done:
Ram seminal vesicle microsomes (Biochemistry, 1971, 10, 2372) are incubated with arachidonic acid (100 μM: 1 min.: 22°) to produce PGH2 and aliquots of the reaction mixture injected into a stream of Krebs-bicarbonate at 37° C. (containing a mixture of antagonists (Nature, […], 218, 1135) and indomethacin (Brit. J. Pharmacol., 1972, 45, 451) which is superfusing a spirally-cut rabbit aorta strip (Nature, 1969, 223, 29). The ability of a compound to inhibit the enzyme is measured by comparing the increases in isometric tension produced by PGH2 in the absence of the test compound, and following pre-incubation of the enzyme with the test compound for 5 minutes.
as §1

Test [5] addresses T1, prostacyclin synthetase. As to the kind of experiment: Prostacyclin (PGI2) synthetase inhibition (pig aorta microsomes, rabbit aorta bioassay). In kind it is biochemical. The conditions noted are these: 5 min pre-incubation, isometric tension of rabbit aorta, read-out: Molar concentration causing 50% inhibition of (3) prostacyclin synthetase. How it is done:
2. Prostacyclin (PGI2) Synthetase
Pig aorta microsomes (Nature, 1976, 263, 663) are incubated (30 sec.: 22° C.) with PGH2 produced as in 1) and aliquots bio-assayed as in 1. […] The test compound is then pre-incubated with the enzyme for 5 minutes, and its ability to prevent the decrease in tension is measured.
as §1

A further test concerns aggregation of platelets. The conditions noted are these: rats, abdominal aorta, in vivo; cited from earlier work.

Where a name gives a salt, the structure may show the parent alone.

On to 15-hydroperoxy-arachidonic acid, for which the “prevention of the decrease in PGH2-induced tension (PGI2 synthetase inhibition, in words)” value on prostacyclin synthetase [1] is reported as “prevented completely”.
With `CC(=O)Oc1ccccc1C(=O)O` [Aspirin], the “protection from the lethal effect of intravenous arachidonic acid” value in [2] is listed as “protect the rabbit from the lethal effect of the injection”. For the same compound, the “inhibition of the cyclo-oxygenase enzyme (in words)” value in the test with cyclo-oxygenase enzyme is “inhibit the cyclo-oxygenase enzyme”. Besides, the “effect on prostacyclin and thromboxane A2 levels (in words)” value in test [3] is “reduce both the prostacyclin and thromboxane A2 levels”. In addition, the “inhibitory activity in vitro against a variety of aggregating agents” value in [4] was “show inhibitory activity in vitro against a variety of aggregating agents”.
Consider `Cc1ccc(OCC(=O)O)c(Cn2ccnc2)c1` [Example 2, 2-(1-Imidazolylmethyl)-4-methyl-phenoxyacetic acid hydrochloride hemihydrate], for which the IC50 is 8.2 nM at thromboxane synthetase, greater than 100000 nM at cyclo-oxygenase and greater than 100000 nM on prostacyclin synthetase [5].
With `Cc1ccc(OCCCC(N)=O)c(Cn2ccnc2)c1` [Example 4, 4-[2-(1-Imidazolylmethyl)-4-methyl-phenoxy]butyramide], the IC50 on thromboxane synthetase is 2.4 nM; on cyclo-oxygenase, greater than 100000 nM.
In the same order, the values of `Cc1ccc(OCc2ccc(C(=O)O)cc2)c(Cn2ccnc2)c1` [Example 5, 4-[2-(1-Imidazolylmethyl)-4-methyl-phenoxymethyl]benzoic acid] are 47 nM and greater than 100000 nM.
Consider `NC(=O)COc1ccc(Cn2ccnc2)cc1` [Example 8, 4-(1-Imidazolylmethyl)phenoxyacetamide], for which the IC50 on thromboxane synthetase was 46 nM; on cyclo-oxygenase, greater than 100000 nM.
Regarding `O=C(O)COc1cccc(Cn2ccnc2)c1` [Example 24, 3-(1-Imidazolylmethyl)phenoxyacetic acid hydrochloride], at thromboxane synthetase, the IC50 is 4.5 nM.
`O=C1C(CC[S+]([O-])c2ccccc2)C(=O)N(c2ccccc2)N1c1ccccc1` (stereo not drawn) [sulphinpyrazone]: in [2], the “protection from the lethal effect of intravenous arachidonic acid” value is “protect the rabbit from the lethal effect of the injection”. Further, the “prevention of the aggregation of platelets in an extra corporeal loop” value with aggregation of platelets is “prevent the aggregation of platelets”. Further, in test [4], the “inhibitory activity in vitro against a variety of aggregating agents” value is recorded as “show inhibitory activity in vitro against a variety of aggregating agents”.
